Measured values: publication PMC6917733 (Scientific Reports, 2019)
Where “and” joins values, the source holds several entries; their conditions need not be identical. Equal values may be shown once. Values belong to the compound of their own block, whether it stands above or below them. Bridge positions count the residues as written; N and C are the ends. Peptide text beside a SMILES is read from it.

How the values were obtained:
human V1aR [1] = molecular target: T1, human V1aR (Homo sapiens, UniProt P37288); assay: β-arrestin-2 recruitment BRET at V1aR
human V1bR [2] = molecular target: T2, human V1bR (Homo sapiens, UniProt P47901); assay: β-arrestin-2 recruitment BRET at V1bR; type: cell-based; parameters: expressed in transfected cells; host or cells: HEK293; settings: for EC50: β-arrestin-2 recruitment
T2 sequence (P47901 1-424): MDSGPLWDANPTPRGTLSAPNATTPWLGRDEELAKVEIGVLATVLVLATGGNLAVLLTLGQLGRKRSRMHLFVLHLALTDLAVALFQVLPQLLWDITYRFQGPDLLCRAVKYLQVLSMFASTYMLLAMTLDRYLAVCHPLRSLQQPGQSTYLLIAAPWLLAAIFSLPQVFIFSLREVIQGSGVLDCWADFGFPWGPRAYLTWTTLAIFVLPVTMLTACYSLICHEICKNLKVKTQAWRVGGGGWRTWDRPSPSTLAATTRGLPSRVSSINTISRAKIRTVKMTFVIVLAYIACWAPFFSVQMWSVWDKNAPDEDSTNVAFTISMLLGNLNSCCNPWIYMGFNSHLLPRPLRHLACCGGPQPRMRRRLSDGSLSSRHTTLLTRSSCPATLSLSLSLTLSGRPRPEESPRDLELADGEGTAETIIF

human V1aR [3] = molecular target: T1, human V1aR; assay: IP1 accumulation (IP-One Gq assay), HEK293 cells expressing V1aR; settings: concentrations up to 10 µM
human V2R [4] = molecular target: T3, human V2R (Homo sapiens, UniProt P30518); assay: cAMP accumulation (LANCE Ultra cAMP), HEK293 cells expressing V2R
human V1aR [5] = molecular target: T1, human V1aR; assay: Antagonist screen and Schild regression analysis (IP1) at V1aR
human OTR [6] = molecular target: T4, human OTR (Homo sapiens, UniProt P30559); assay: IP1 accumulation (IP-One Gq assay), HEK293 cells expressing OTR
T4 sequence (P30559 1-389): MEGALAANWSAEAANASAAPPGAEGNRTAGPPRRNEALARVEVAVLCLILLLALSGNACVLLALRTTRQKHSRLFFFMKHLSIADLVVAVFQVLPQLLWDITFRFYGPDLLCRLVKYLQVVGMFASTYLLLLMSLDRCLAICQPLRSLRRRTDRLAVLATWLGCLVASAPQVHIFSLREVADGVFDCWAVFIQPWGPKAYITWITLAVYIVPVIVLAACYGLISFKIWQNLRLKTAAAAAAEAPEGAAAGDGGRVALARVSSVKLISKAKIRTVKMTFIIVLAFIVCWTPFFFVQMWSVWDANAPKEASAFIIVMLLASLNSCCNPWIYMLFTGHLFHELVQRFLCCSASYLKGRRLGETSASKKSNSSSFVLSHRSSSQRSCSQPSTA

human V2R [7] = molecular target: T3, human V2R; assay: β-arrestin-2 recruitment BRET at V2R; type: cell-based; parameters: expressed in transfected cells; host or cells: HEK293
human OTR [8] = molecular target: T4, human OTR; assay: β-arrestin-2 recruitment BRET at OTR
[9] = test system: V2R-mediated ERK 1/2 phosphorylation; assay: Immunoblotting for ERK 1/2 phosphorylation in HEK293 cells expressing V2R; type: cell-based, human; settings: 1 µM peptide
Method: Immunoblotting was performed as described previously. Briefly, following an overnight incubation and 16 h starvation HEK293 cells transiently expressing human V2R were treated with 1 µM I8-arachnotocin or 1 µM VP prepared in DMEM. Cells were incubated with peptide ligands at 37 °C for indicated periods and 1 mL of chilled 1x phosphate-buffered saline were used to terminate the incubation. After freeze-thaw cycle in liquid nitrogen cells were solubilized in 100 µl of lysis buffer (50 mM HEPES, 0.5% NP-40 substitute, 50 mM glycerol-2-phosphate, 250 mM NaCl, 5 mM EDTA, 2 mM imidazole, 1 mM Na3VO4, 1 mM hepta-molybdate, pH adjusted to 7.0 with NaOH), freshly added 1 mM PMSF, one cOmplete Mini EDTA-free tablet (Roche) and one PhosSTOP tablet (Roche) and then centrifuged at 10,000 × g for 10 min. The bicinchoninic acid assay (Micro-BCA kit, Pierce) was used to measure total protein content. Phosphorylated and total ERK 1/2 were detected by immunoblotting on the same membrane using the same exposure method with an anti-phospho-p44/42 MAPK antibody (ERK 1/2) (1:1,000; Cell Signaling Technology) and an anti-p44/42 MAPK (ERK 1/2) (1:1,000; Cell Signaling Technology), respectively. Detection and quantification of resulting bands were executed by secondary antibodies (Donkey anti rabbit 680RD and […]) and Odyssey Clx (LiCor Biosciences) infrared fluorescent imaging system, respectively.

human V1bR [10] = molecular target: T2, human V1bR; assay: IP1 accumulation (IP-One Gq assay), HEK293 cells expressing V1bR
human V2R [11] = molecular target: T3, human V2R; assay: β-arrestin-1 recruitment BRET at V2R
[12] = molecular target: EGFP-tagged human vasopressin V2 receptor (human) (UniProt P30518)
[13] = molecular target: EGFP-tagged human vasopressin V1a receptor (human) (UniProt P37288)
[14] = molecular target: EGFP-tagged human vasopressin V1b receptor (human) (UniProt P47901)
[15] = molecular target: EGFP-tagged human vasopressin V2 receptor (human) (UniProt P30518); remark: listed apart in the source
[16] = molecular target: EGFP-tagged human oxytocin receptor (human) (UniProt P30559)
[17] = molecular target: EGFP-tagged human vasopressin V1b receptor (human) (UniProt P47901); remark: listed apart in the source
[18] = molecular target: EGFP-tagged human oxytocin receptor (human) (UniProt P30559); remark: listed apart in the source

β-arrestin-2 recruitment kinetics (human V1aR [1]; 10 µM ligand): absent | Emax (human V1bR [2]): 65 ± 5% | bias (method of Kenakin) compared to VP (human V1bR [2]; V1bR, G protein vs β-arrestin-2): did not detect differences | EC50 (human V1bR [2]; V1bR, read-out: EC50): 1.2 µM | EC50 (human V1bR [2]; V1bR, read-out: pEC50 (as logEC50 ± SEM) (converted)): 1.2 µM | activation of V1aR (human V1aR [3]): No activation | EC50 (human V2R [4]; EC50, cAMP accumulation, G protein-mediated, V2R): 0.034 µM | Emax (human V2R [4]; HEK293): 99 ± 3% | type of agonism (human V2R [4]; V2R, second messenger signaling): full agonist | fold less potent compared to the endogenous peptide (human V2R [4]; V2R, vs VP): 5,000 fold | EC50 (human V2R [4]; pEC50 (as logEC50 ± SEM), cAMP accumulation, V2R): 0.0339 µM | pA2 expressed as concentration (human V1aR [5]; Schild regression at V1aR): 558 nM and ~ 558 nM | pA2 (human V1aR [5]; Schild regression, VP curves in presence of 1, 3, 10 µM I8-arachnotocin): 6.25 and 6.253 | Schild regression slope (human V1aR [5]; V1aR, VP as agonist): 1.28 ± 0.02 | type of antagonism (human V1aR [5]; V1aR, dextral shift without affecting Emax): competitive antagonist | IP1 levels in antagonist screen (human V1aR [5]; VP (0.55 nM) in the presence of 1 and 10 µM I8-arachnotocin): lower IP1 levels than VP alone | EC50 (human OTR [6]; EC50, IP1 accumulation, G protein-mediated, OTR): 0.79 µM | Emax (human OTR [6]; HEK293): 62 ± 6% | type of agonism (human OTR [6]; OTR, second messenger signaling): partial agonist | fold less potent compared to the endogenous peptide (human OTR [6]; OTR, vs OT): 65 fold | EC50 (human OTR [6]; pEC50 (as logEC50 ± SEM), IP1 accumulation, OTR): 0.776 µM | difference non-β-arrestin-dependent vs β-arrestin-dependent EC50 (human V2R [7]): > 2,000 fold | β-arrestin-2 recruitment kinetics (human V2R [7]; 10 µM ligand): absent | β-arrestin-2 recruitment (human V2R [7]; up to a concentration of 100 µM): did not recruit β-arrestin-2 | EC50 (human V2R [7]; β-arrestin-1 or -2 recruitment, read-out: EC50 of β-arrestin-dependent signaling pathway): > 100 µM | Emax (human OTR [8]): 32 ± 5% | EC50 (human OTR [8]; EC50, β-arrestin-2 recruitment, OTR): 5.7 µM | β-arrestin-2 recruitment kinetics (human OTR [8]; OTR, 10 µM ligand): absent | bias (method of Kenakin) compared to OT (human OTR [8]; OTR, G protein vs β-arrestin-2): did not detect differences | EC50 (human OTR [8]; pEC50 (as logEC50 ± SEM), β-arrestin-2 recruitment, OTR): 5.75 µM | EC50 (human V1bR [10]; EC50, IP1 accumulation, G protein-mediated, V1bR): 1.2 µM | Emax (human V1bR [10]; HEK293): 104 ± 8% | type of agonism (human V1bR [10]; V1bR, second messenger signaling): full agonist | fold less potent compared to the endogenous peptide (human V1bR [10]; V1bR, vs VP): 750 fold | EC50 (human V1bR [10]; pEC50 (as logEC50 ± SEM), IP1 accumulation, V1bR): 1.17 µM | β-arrestin-1 recruitment kinetics (human V2R [11]; 10 µM ligand, time-dependent): failed to recruit β-arrestin-1 | β-arrestin-1 recruitment (human V2R [11]; up to 100 µM): no β-arrestin-1 recruitment
Compound: CC[C@H](C)[C@@H]1NC(=O)[C@H](Cc2ccccc2)NC(=O)[C@@H](N)CSSC[C@@H](C(=O)N2CCC[C@H]2C(=O)N[C@H](C(=O)NCC(N)=O)[C@@H](C)CC)NC(=O)[C@H](CC(N)=O)NC(=O)[C@H]([C@@H](C)O)NC1=O [I8-arachnotocin] (H-CFITNCPIG-NH2; disulfide 1-6; N-terminus assumed)
β-arrestin-2 recruitment (human V1aR [1]; concentration up to 100 µM): no I8-arachnotocin-induced β-arrestin-2 recruitment was detected | course of ERK 1/2 phosphorylation after the peak (late phase, 30–120 min) ([9]; 1 min to 2 h): decreased over time | time of peak ERK 1/2 phosphorylation ([9]; HEK293 expressing human V2R): 5 min

non-β-arrestin-dependent signaling at V2R as restated in the discussion; EC50 [12]: 0.05 µM | β-arrestin-dependent signaling (β-arrestin recruitment) at V2R as restated in the discussion; EC50 [12]: > 100 µM | Schild regression of VP-induced IP1 accumulation at human V1aR in the presence of 1, 3 and 10 µM I8-arachnotocin (blocks VP at V1aR); pA2 [13]: 6.25 | Schild regression of VP-induced IP1 accumulation at human V1aR in the presence of 1, 3 and 10 µM I8-arachnotocin (blocks VP at V1aR); pA2 as a concentration [13]: 558 nM | IP1 accumulation (Gαq) in HEK293 cells expressing human V1bR; EC50 [14]: 1.2 µM | IP1 accumulation (Gαq) in HEK293 cells expressing human V1bR; Emax relative to VP [14]: 104% | cAMP accumulation (Gαs) in HEK293 cells expressing human V2R; EC50 [15]: 0.034 µM | cAMP accumulation (Gαs) in HEK293 cells expressing human V2R; Emax relative to VP [15]: 99% | IP1 accumulation (Gαq) in HEK293 cells expressing human OTR; EC50 [16]: 0.79 µM | IP1 accumulation (Gαq) in HEK293 cells expressing human OTR; Emax relative to OT [16]: 62% | β-arrestin-2 recruitment to V1bR (BRET) against I8-arachnotocin concentration; EC50 [17]: 1.2 µM | β-arrestin-2 recruitment to OTR (BRET) against I8-arachnotocin concentration; EC50 [18]: 5.7 µM
Compound: I8-arachnotocin (peptide)

IP1 accumulation (Gαq) in HEK293 cells expressing human OTR; EC50 [16]: 0.012 µM | β-arrestin-2 recruitment to OTR (BRET) against OT concentration; EC50 [18]: 0.17 µM
Compound: oxytocin (from UniProt P01178 20-28) (peptide)
